The values that follow are results of earlier work, collected in patent publication US9302977B2, “Method of making monomethyl fumarate” (XenoPort, Inc., priority 2013, dated 2016).

Where a name gives a salt, the structure may show the parent alone.

Data set [1] relates to TNF-induced NF-κB signaling.
For data set [2] the following is noted: as an impurity.

On to `COC(=O)/C=C/C(=O)OC` [DMF, dimethyl fumarate], for which the aqueous solubility entry is on record as “poor”. Moreover, in data set [1], the “TNF-induced DNA binding of NF-κB proteins” value is reported as “inhibits”; the “TNF-induced nuclear entry of activated NF-κB proteins” value is recorded as “inhibits”; the “TNF-induced tissue factor mRNA and protein expression” value was “inhibits”.
Turning to `COS(=O)(=O)OC` [Dimethyl sulfate], in data set [2], the genotoxicity result is listed as “genotoxic”.
